Data reported in patent US6699868B2, “Pyridazinyl phenyl hydrazones useful against congestive heart failure” (Orion Corporation, priority 2000, dated 2004).
Read-outs that look alike come from different tables or passages of the source.

How the values were obtained:
skinned cardiac fiber = test: Calcium sensitizing effect in skinned cardiac fiber; format: cell-based, guinea-pig; details: test compound 0.1-10 μM added cumulatively, calcium (pCa 6.0 or 6.2)-induced tension, room temperature; for Emax: Cavia porcellus, maximum effect, read-out: Change in force/ % change from control (maximum calcium sensitizing effect in skinned fiber)
Description: Experiment 1. Calcium sensitizing effect in skinned cardiac fiber
The heart of a guinea-pig was excised and perfused with ice-cold saponin (125 mg/l) skinning solution consisting of (mM): K^+-acetate 74.7. EGTA-Na2 10, MgSO4 5.4, ATP-Na2 4, MOPS 20, pH 7.0 (by 1 M KOH). Left ventricular papillary muscle was dissected and sonicated at 10 Watt for 60 s. The distance between ultrasound probe and the papillary muscle was 10 mm. The fibres (<200 μm in diameter) were dissected from the surface of sonicated papillary muscles in the same solution.
The fibre was glued between platinum wires, one attached to an isometric force transducer (type AE-801,SensoNor, Horten, Norway) and another to a micro manipulator. The fibre was relaxed in a solution consisting of (mM): EGTA-Na2 10, MgSO4 5.4, ATP-Na2 4, MOPS 20. The pH of the solution was adjusted to 7.0 and ionic strength to 0.16 M by the addition of KOH and K^+-acetate. Creatine kinase and creatine phosphate were not added as an ATP generating system because the developed tension was well sustained for the time required for experiment. The calculations for ionic strength and for free calcium (pCa 7.0-6.2) were performed using a suitable program. The fibres were stretched in relaxing solution until resting tension was just noticeable. When the calcium (pCa 6.0 or 6.2)-induced tension had reached steady state the test compound (final concentrations 0.1, 0.3, 1, 3,and 10 μM) was cumulatively added into the solution at 6 min intervals. All the experiments were carried out with fresh fibres at normal room temperature.

isolated heart = test: Effect in left ventricular pressure derivatives in isolated heart (Langendorff); details: isolated guinea-pig heart, constant pressure 50 mmHg, 37° C., read-out: EC50 on maximal positive derivative of the left ventricular systolic pressure
Description: Experiment 2. Effect in left ventricular pressure derivatives in isolated heart
After sacrification the heart of a guinea-pig was rapidly excised and rinsed in oxygenated perfusion buffer. A cannula was inserted into the aorta and secured with a ligature. Retrograde perfusion began as soon as the heart was placed in a thermostatically controlled moist chamber of the Langendorff apparatus (Hugo Sachs Elektronik, KG). Modified Tyrode solution (37° C.), equilibrated in a thermostatically controlled bulb oxygenator with carbogen (95% O2 and 5% CO2), was used as a perfusion buffer. The composition of the Tyrode solution was (in mM): NaCl 135; MgCl2×6H2O 1; KCl 5; CaCl2×2H2O 2; NaHCO3 15; Na2HPO4×2H2O 1; glucose 10; pH 7.3-7.4. The perfusion buffer was delivered at the top of the oxygenator by a pump and driven automatically by its controller. Subsequently, the buffer was delivered into the bulbs of the oxygenator chamber by a rotating disk. It was dispersed by making a thin fluid film on a large inner oxygenator surface in O2/CO2 atmosphere leading to saturation of the perfusate with oxygen (partial pressure 660 mmHg at 37° C.).
The experiments were carried out under constant pressure condition (50 mmHg). After a short prestabilization (10 min) a latex balloon (size 4) was carefully placed into the left ventricle through the left pulmonary vein and the left atrium. The latex balloon was attached to a stainless-steel cannula coupled with a pressure transducer. The latex balloon, the cannula and the chamber of the pressure transducer were carefully filled with ethylene glycol/water (1:1) mixture avoiding any air-bubble. The isovolumetric left ventricular pressure was recorded through the pressure transducer. At the beginning of the experiment, the volume of the balloon was adjusted to obtain a diastolic pressure of approximately 5 mmHg. Before starting the experiment the heart was allowed to stabilise further for 30-50 min. The systolic and end-diastolic left ventricular pressures were recorded for calculating the maximal positive and negative derivatives of the left ventricular pressure.

Structure (SMILES) | melting point | EC50 (isolated heart; Cavia porcellus) | Emax (skinned cardiac fiber) | other results
Cc1cc(=O)n(C)nc1-c1ccc(NN=Cc2ccc(O)cc2O)cc1 [Example 24, 6-{4-[N′-(2,4-Dihydroxybenzylidene)hydrazino]phenyl}-2,5-dimethyl-2H-pyridazin-3-one] | 266 to 269 °C | – | 42% | –
CC(=NNc1ccc(C2=NNC(=O)CC2C)cc1)c1ccc(O)c(C)c1O (stereo not shown) [Example 49, 6-(4-{N-[1-(2,4-Dihydroxy-3-methylphenyl)ethylidene]hydrazino}phenyl)-5-methyl-4,5-dihydro-2H-pyridazin-3-one] | – | – | – | Change in force/ % change from control (maximum calcium sensitizing effect in skinned fiber) (skinned cardiac fiber): 28.7 % change from control; EC50 (isolated heart): 0.25 µM
CC1CC(=O)NN=C1c1ccc(NN=C(c2ccc(O)cc2O)c2ccc(O)cc2O)cc1 (stereo not shown) [Example 34, 6-(4-{N′-[Bis-(2,4-dihydroxy-phenyl)-methylene]-hydrazino}-phenyl)-5-methyl-4,5-dihydro-2H-pyridazin-3-one] | – | 0.11 µM | 52.8% | –
CC(=NNc1ccc(-c2n[nH]c(=O)cc2C)cc1)c1ccc(O)cc1O [Example 23, 6-{4-{N′-[1-(2,4-Dihydroxyphenyl)ethylidene]hydrazino}phenyl}-5-methyl-2H-pyridazin-3-one] | – | 2.47 µM | 39.9% | –
COc1c(O)ccc(C=NNc2ccc(C3=NNC(=O)C[C@H]3C)cc2)c1[N+](=O)[O-] [Example 2, (R)-6-{4-[N′-(4-Hydroxy-3-methoxy-2-nitro-benzylidene)-hydrazino]-phenyl}-5-methyl-4,5-dihydro-2H-pyridazin-3-one] | – | 0.02 µM | 207% | –
CC1CC(=O)NN=C1c1ccc(C(=NN)c2ccccc2C(=O)O)cc1 (stereo not shown) [Example 10, 2-{[4-(4-Methyl-6-oxo-1,4,5,6-tetrahydro-pyridazin-3-yl)-phenyl]-hydrazonomethyl}-benzoic acid] | 250 to 251 °C | – | – | –
Cn1nc(-c2ccc(NN=Cc3ccc(O)cc3O)cc2)ccc1=O [Example 25, 6-{4-[N′-(2,4-Dihydroxybenzylidene)hydrazino]phenyl}-2-methyl-2H-pyridazin-3-one] | 304 to 306 °C | – | – | –

Now from value to compound, other results behind:

melting point | EC50 (isolated heart; Cavia porcellus) | Structure (SMILES) | Emax (skinned cardiac fiber) | other results
238 to 240 °C | 0.71 µM | CCc1c(O)ccc(C=NNc2ccc(C3=NNC(=O)CC3C)cc2)c1O (stereo not shown) [Example 40, 6-{4-[N′-(3-Ethyl-2,4-dihydroxy-benzylidene)-hydrazino]-phenyl}-5-methyl-4,5-dihydro-2H-pyridazin-3-one] | 100% | –
244 to 248 °C | – | CC(=NNc1ccc(C2=NNC(=O)CC2C)cc1)c1ccc(O)c(C)c1O (stereo not shown) [Example 38, 6-(4-{N′-[1-(2,4-Dihydroxy-3-methyl-phenyl)-ethylidene]-hydrazino}-phenyl)-5-methyl-4,5-dihydro-2H-pyridazin-3-one] | 32.2% | –
145 to 155 °C | – | CC(=O)Nc1ccc(C(C)=NNc2ccc(C3=NNC(=O)CC3C)cc2)cc1 (stereo not shown) [Example 37, N-[4-(1-{[4-(4-Methyl-6-oxo-1,4,5,6-tetrahydro-pyridazin-3-yl)-phenyl]-hydrazono}-ethyl)-phenyl]-acetamide] | 21.7% | –
267 to 270 °C | – | CC1CC(=O)NN=C1c1ccc(NN=Cc2cccc(O)c2)cc1 (stereo not shown) [Example 62, 6-{4-[N′-(3-Hydroxy-benzylidene)-hydrazino]-phenyl}-5-methyl-4,5-dihydro-2H-pyridazin-3-one] | – | –
264 to 268 °C | – | COc1c(O)ccc(C=NNc2ccc(-c3n[nH]c(=O)cc3C)cc2)c1[N+](=O)[O-] [Example 22, 6-{4-[N′-(4-Hydroxy-3-methoxy-2-nitrobenzylidene)hydrazino]phenyl}-5-methyl-2H-pyridazin-3-one] | – | –
172 to 174 °C | – | COc1ccc(C=NNc2ccc(C3=NNC(=O)CC3C)cc2)cc1 (stereo not shown) [Example 55, 6-{4-[N′-(4-Methoxy-benzylidene)-hydrazino]-phenyl}-5-methyl-4,5-dihydro-2H-pyridazin-3-one] | – | –
